In the experiment the test system is spontaneously hypotensive rats (SHR). Nature of the experiment: Hypotensive activity: systolic blood pressure by tail plethysmographic technique after oral dosing. The class given is in vivo. The conditions noted are these: 30 mg/kg orally, SHR fasted overnight. How it is done:
A test compound dissolved or suspended in water was administered orally at a dose of 30 mg/kg to spontaneously […] (SHR) fasted overnight, and the systolic blood pressure of the rats was measured at intervals by the tail plethysmographic technique (The Journal of Laboratory and Clinical Medicine, Vol. 78(1971), page 957). The hypotensive activity of the test compound was estimated in terms of "Decrease in Blood pressure (Δ mm Hg)" which was calculated by the following formula: Decrease in Blood pressure (Δ mm Hg) = [formula]

Counter-ions that a name gives are not always drawn.

On to `COc1ccc([C@@H]2Sc3ccc4ccccc4c3N(CCN(C)C)C(=O)[C@@H]2OC(C)=O)cc1` (racemic) [Test compound, (±)-cis-2-(4-methoxyphenyl)-3-acetoxy-5-[2-dimethylamino)ethyl]-2,3-dihydro-naphtho[2,1-b][1,5]thiazepin-4(5H)-one fumarate], for which the “Decrease in Blood pressure” value (Time after dosing 1 hr) is 58.3±8.8 Δmm Hg, the “Decrease in Blood pressure” value (Time after dosing 2 hrs) is 51.3±7.7 Δmm Hg and the “Decrease in Blood pressure” value (Time after dosing 5 hrs) is 34.0±6.2 Δmm Hg.

For the origin of these results see patent EP0302379A1, “Naphthothiazepine derivatives and a process for preparing the same” (TANABE SEIYAKU CO., LTD., priority 1987, dated 1989).
